According to patent US20050282887A1, “Novel sulfamate and sulfamide derivatives useful for the treatment of epilepsy and related disorders” (priority 2004, published 2005):

Legend:
CF-1 male albino mice = test: Maximal Electroshock Test (MES), anticonvulsant activity; assay type: in vivo
Procedure: Anticonvulsant activity was determined using the MES test, run according to the procedure described in detail below. Swinyard E A, Woodhead J H, White H S, Franklin M R. Experimental selection, quantification, and evaluation of anticonvulsants. In Levy R H, et al., eds. Antiepileptic Drugs. 3rd ed. New York: Raven Press, 1989:85-102
CF-1 male albino mice (25-35 g) were fasted for 16 hours before testing. Mice were randomly selected into control and test groups, with the animals dosed with vehicle or test compound, at varying concentrations, respectively. On the study date, at 30 minutes prior to shock, the mice were orally dosed with vehicle (0.5% methylcellulose) or test compound (100-300 mg/kg). Seizures were induced by trans-corneal electric shock using a 60-Hz alternating current, 50 mA, delivered for 0.2 sec. The mice in the test groups were subjected to electrical stimulus at time intervals between 15 minutes and 4 hours following administration of test compound. […] The test was complete when the entire course of the convulsion has been observed (typically, less than 1 minute after electrical stimulation), and the mice were then immediately euthanized by carbon dioxide inhalation.
Abolition of the full body tonic extensor component of the seizure was taken as the endpoint of the test. […] The ED50 value of the test compound (calculated when appropriate) was the calculated dose required to block the hind limb tonic-extensor component of the MES-induced seizure in 50% of the rodents tested. A probit analysis was used to calculate the ED50 and 95% fiducial limits (FL).
Representative compounds of the present invention were tested according to the procedure described above, with results as listed in Table 4 below. Results are listed as number of mice with full body tonic extension prevented/total number of mice tested @ a given time (at a given test compound dosage level).

carbonic anhydrase = conditions: cited from earlier work

NS(=O)(=O)OCC1CCc2ccccc2O1 (stereo not drawn) [Compound #11, Chroman-2-ylmethylsulfamate]
melting point: 87 to 90 °C

NS(=O)(=O)NC[C@H]1COc2ccc([N+](=O)[O-])cc2O1 [compound 18, (2S)-(−)-N-(2,3-Dihydro-7-nitro-benzo[1,4]dioxin-2-ylmethyl)-sulfamide]
MES Activity (result in words) (CF-1 male albino mice; @ 100 mg/kg oral): Inactive @ 100 mg/kg

NS(=O)(=O)NC[C@H]1COc2cc(Cl)ccc2O1 [Compound #8, (2S)-(−)-N-(6-Chloro-2,3-dihydro-benzo[1,4]dioxin-2-ylmethyl)-sulfamide]
MES Activity: number of mice with full body tonic extension prevented/total number of mice tested (CF-1 male albino mice; @ 3 h, 100 mg/kg oral): 3/5 @ 3 h (100 mg/kg)

NS(=O)(=O)NC[C@H]1COc2ccccc2O1 [Compound #4, (2S)-(−)-N-(2,3-Dihydro-benzo[1,4]dioxin-2-ylmethyl)-sulfamide]
MES Activity: number of mice with full body tonic extension prevented/total number of mice tested (CF-1 male albino mice; @ 1 h, 300 mg/kg oral): 5/5 @ 1 h (300 mg/kg)

NS(=O)(=O)OC[C@H]1COc2cc(Cl)ccc2O1 [Compound #12, Sulfamic acid, 6-chloro-2,3-dihydro-benzo[1,4]dioxin-2-ylmethyl ester]
MES Activity: number of mice with full body tonic extension prevented/total number of mice tested (CF-1 male albino mice; @ 4 h, 100 mg/kg oral): 3/5 @ 4 h (100 mg/kg) | melting point: 113 to 116 °C

NS(=O)(=O)NCC1CCc2ccccc2O1 (stereo not drawn) [Compound #10, Chroman-2-ylmethylsulfamide]
MES Activity: number of mice with full body tonic extension prevented/total number of mice tested (CF-1 male albino mice; @ 1 h, 100 mg/kg oral): 1/5 @ 1 h (100 mg/kg) | melting point: 100 to 101 °C

Cc1ccc2c(c1)O[C@@H](CNS(N)(=O)=O)CO2 [Compound #19, (2S)-(−)-N-(7-Methyl-2,3-dihydro-benzo[1,4]dioxin-2-ylmethyl)-sulfamide]
MES Activity: number of mice with full body tonic extension prevented/total number of mice tested (CF-1 male albino mice; @ 0.5 h, 300 mg/kg oral): 5/5 @ 0.5 h (300 mg/kg)

NS(=O)(=O)NCC1COc2ccccc2O1 (racemic) [Compound #1, N-(2,3-Dihydro-benzo[1,4]dioxin-2-ylmethyl)-sulfamide]
MES Activity: number of mice with full body tonic extension prevented/total number of mice tested (CF-1 male albino mice; @ 1 h, 300 mg/kg oral): 2/4 @ 1 h (300 mg/kg)

NS(=O)(=O)NCC1Oc2ccccc2O1 [Compound #2, (Benzo[1,3]dioxol-2-ylmethyl)sulfamide]
MES Activity: number of mice with full body tonic extension prevented/total number of mice tested (CF-1 male albino mice; @ 2 h, 100 mg/kg oral): 4/4 @ 2 h (100 mg/kg)

Nc1ccc2c(c1)O[C@@H](CNS(N)(=O)=O)CO2 [Compound #36, (2S)-(−)-N-(7-Amino-2,3-dihydro-benzo[1,4]dioxin-2-ylmethyl)-sulfamide]
MES Activity (result in words) (CF-1 male albino mice; @ 100 and 300 mg/kg oral): Inactive @ 100 and 300 mg/kg

NS(=O)(=O)NC[C@H]1COc2ccc(Cl)cc2O1 [compound 14, (2S)-(−)-N-(7-Chloro-2,3-dihydro-benzo[1,4]dioxin-2-ylmethyl)-sulfamide]
MES Activity: number of mice with full body tonic extension prevented/total number of mice tested (CF-1 male albino mice; @ 4 h, 100 mg/kg oral): 3/5 @ 4 h (100 mg/kg)

CC1(C)O[C@@H]2[C@@H](CO[C@@]3(COS(N)(=O)=O)OC(C)(C)O[C@@H]23)O1 [Topiramate]
carbonic anhydrase inhibition (carbonic anhydrase): single digit micromolar

NS(=O)(=O)NC[C@H]1COc2cc(Cl)c(Cl)cc2O1 [Compound #29, (2S)-(−)-N-(6,7 Dichloro-2,3-dihydro-benzo[1,4]dioxin-2-ylmethyl)-sulfamide]
MES Activity: number of mice with full body tonic extension prevented/total number of mice tested (CF-1 male albino mice; @ 4 h, 100 mg/kg oral): 3/5 @ 4 h (100 mg/kg) | melting point: 119 to 121 °C

CN(CC1COc2ccccc2O1)S(N)(=O)=O (racemic) [Compound #7, N-(2,3-Dihydro-benzo[1,4]dioxin-2-ylmethyl)-N-methylsulfamide]
MES Activity: number of mice with full body tonic extension prevented/total number of mice tested (CF-1 male albino mice; @ 0.5 h, 300 mg/kg oral): 3/3 @ 0.5 h (300 mg/kg) | melting point: 97 to 98 °C

Sulfamic acid, 6,7 dichloro-2,3-dihydro-benzo[1,4]dioxin-2-ylmethyl ester [Compound #27]
MES Activity: number of mice with full body tonic extension prevented/total number of mice tested (CF-1 male albino mice; @ 4 h, 100 mg/kg oral): 5/5 @ 4 h (100 mg/kg)

NS(=O)(=O)NCCC1COc2ccccc2O1 (stereo not drawn) [Compound #16, 2-(2,3-Dihydro-benzo[1,4]dioxin-2-yl)-ethylsulfamide]
MES Activity: number of mice with full body tonic extension prevented/total number of mice tested (CF-1 male albino mice; @ 0.5 h, 300 mg/kg oral): 5/5 @ 0.5 h (300 mg/kg) | melting point: 101 to 103 °C

CN(C)S(=O)(=O)NCC1COc2ccccc2O1 (racemic) [Compound #6, N-(2,3-Dihydro-benzo[1,4]dioxin-2-ylmethyl)-N′,N′ dimethylsulfamide]
MES Activity: number of mice with full body tonic extension prevented/total number of mice tested (CF-1 male albino mice; @ 0.5 h, 300 mg/kg oral): 4/5 @ 0.5 h (300 mg/kg) | melting point: 76 to 78 °C

NS(=O)(=O)NCC1COc2ccccc2OC1 [Compound #3, ((3,4-Dihydro-2H-benzo[b][1,4]dioxepin-3-yl)methyl)sulfamide]
MES Activity: number of mice with full body tonic extension prevented/total number of mice tested (CF-1 male albino mice; @ 1 h, 300 mg/kg oral): 2/3 @ 1 h (300 mg/kg)
